This assay deals with Hepatitis C virus. The experiment in a line: Antiviral activity against HCV infected in human HuH7 cells assessed as inhibition of viral replication after 2 days by luciferase reporter gene assay. It is filed as functional, organism-based, Hepacivirus hominis. To be noted: Huh-7, 48 h. For orientation: In a reporter assay the amount or activity of a reporter protein is the signal.

The record followed here is ChEMBL document CHEMBL3124746, “Triazine Analogues as NS5B Inhibitors for the Treatment of HCV” (ACS Med Chem Lett, 2014).

Each structure is given as a SMILES string.

A word on the EC50: it is the concentration needed to bring the measured effect to its halfway point. With `COC(=O)[C@@H](CCNC(=O)C(=O)Nc1cccc(OC(F)(F)F)c1)NC(=O)c1ccc(Nc2nc(NC3(c4ccc(Cl)cc4)CC3)nc(OCC(F)(F)F)n2)cc1`, the EC50 came to 0.16 nM.

With `CNC(=O)C(=O)NC[C@@H](NC(=O)c1ccc(Nc2nc(NC3(c4ccc(Cl)cc4)CC3)nc(OCC(F)(F)F)n2)cc1)C(=O)O`, the concentration giving a half-maximal response (EC50) was 0.69 nM.
